Values of other authors as cited in patent publication US20110015368A1, “CD4-RECEPTOR-DERIVED PEPTIDES AND METHOD FOR THE PREPARATION THEREOF” (priority 2006, published 2011).

System: HIV
Details: Esté et al. 1997

Substance	Inhibiting the infection of cells by HIV
chondroitin sulphate	not
heparin	capable of inhibiting the infection of cells by HIV
dextran sulphate	capable of inhibiting the infection of cells by HIV
